# In patent US9192672B2, “Zwitterion solution for low-volume therapeutic delivery” (Wayne State University Board of Governors, priority 2007, dated 2015):
# Experiments:
# Solubility in saline = assay type: physicochemical; conditions: for solubility: saline, saline or isotonic
# physchem [1] = conditions: saline or isotonic, thermodynamic from solid
# physchem [2] = conditions: aqueous buffer, thermodynamic from solid
# [3] = Solubility in artificial cerebrospinal fluid (aCSF); conditions: Table 2, artificial CSF
# [4] = cited from earlier work
# [5] = artificial cerebrospinal fluid (aCSF)
SMILES,"solubility (Solubility in saline; Table 2, saline) [µg/mL]",solubility (physchem [2]) [µg/mL],solubility (physchem [2]; MPI solution or aCSF) [µg/mL],Solubility In Artificial CSF [3] [µg/mL],other results
"NC1C2CN(c3nc4c(cc3F)c(=O)c(C(=O)O)cn4-c3ccc(F)cc3F)CC12 (stereo not shown) [7-(6-amino-3-aza-bicyclo[3.1.0]hex-3-yl)-1-(2,4-difluoro-phenyl)-6-fluoro-4-oxo-1,4-dihydro-[1,8]naphthyridine-3-carboxylic acid]",,> 205,,,
NCC(CC(=O)O)c1ccc(Cl)cc1 (stereo not shown) [baclofen],,,,,"Concentration achieved in aCSF ([4]; differing forms of aCSF, earlier in vivo studies): less than 0.21 mg/ml; Solubility in aqueous saline solution ([4]; extreme heating at 100° Celsius, sonication, high speed stirring, US 2006/0009523): ≤ 12000 µg/mL; Concentration by back titration method ([4]; initial dissolution in acid pH below 3.87, then base, US 2006/0009523): ~10000 µg/mL"
"CCOC(=O)C1=C(COCCNC(=O)/C=C\C(=O)O)NC(C)=C(C(=O)OC)C1c1ccccc1Cl (stereo not shown) [(Z)-4-[(2-{[4-(2-chlorophenyl)-3-(ethoxycarbonyl)-5-(methoxycarbonyl)-6-methyl-1,4-dihydro-2-pyridinyl]methoxy}ethyl)amino]-4-oxo-2-butenoic acid]",,,> 205,,
CC(Cc1ccc(OCC(=O)O)cc1)NCC(O)c1csc(C(F)(F)F)n1 (stereo not shown) [(4-{2-[2-hydroxy-2-(2-trifluoromethyl-thiazol-4-yl)-ethylamino]-propyl}-phenoxy)-acetic acid],,> 205,,,
CC(=O)OCC1=C(C(=O)O)N2C(=O)[C@@H](NC(=O)CSc3ccncc3)[C@H]2SC1 [cephaprine],,,,>1200,"Solubility In Saline (Solubility in saline; Table 2, saline): 1000 µg/mL"

# Further lines, with some results ahead:
"solubility (Solubility in saline; Table 2, saline) [µg/mL]",solubility (physchem [2]) [µg/mL],solubility (physchem [2]; MPI solution or aCSF) [µg/mL],Solubility In Artificial CSF [3] [µg/mL],SMILES,other results
66,> 205,,,CO/N=C(\C(=O)N[C@@H]1C(=O)N2C(C(=O)[O-])=C(C[N+]3(C)CCCC3)CS[C@H]12)c1csc(N)n1 [cefepime],solubility (physchem [1]): > 78 µg/mL
,> 205,,,COCC1=C(C(=O)O)N2C(=O)[C@@H](NC(=O)/C(=N\OC)c3csc(N)n3)[C@H]2SC1 [cefpodoxime],
55,,> 205,>80,C=CC1=C(C(=O)O)N2C(=O)[C@@H](NC(=O)/C(=N\OCC(=O)O)c3csc(N)n3)[C@H]2SC1 [cefixime],"Solubility In Saline (Solubility in saline; Table 2, saline): 68 µg/mL; solubility (physchem [1]; [5]): > 72 µg/mL"
205,,> 205,>250,"CO/N=C(\C(=O)N[C@@H]1C(=O)N2C(C(=O)O)=C(CSc3nc(=O)c(=O)[nH]n3C)CS[C@H]12)c1csc(N)n1 [Ceftriaxone, ceftriaxone]","solubility (Solubility in saline; Table 1, saline): 205 µg/mL; solubility (Solubility in saline; text of Examples 8-14): 205 µg/mL; solubility (physchem [1]; [5]): > 250 µg/mL; solubility (physchem [2]; multivalent physiologic ion (MPI) solution): ≥ 700 µg/mL"
,> 205,,,C=CC1=C(C(=O)O)N2C(=O)[C@@H](NC(=O)/C(=N\O)c3csc(N)n3)[C@H]2SC1 [cefdinir],
